The record followed here is patent US11173151B2, “Substituted triazole derivatives and uses thereof” (BAYER AKTIENGESELLSCHAFT, priority 2017, dated 2021).

In one test the target is T1, human V1a receptor (Homo sapiens, UniProt P37288).
T1 construct: expressed in transfected cells; host or cells: CHO K1 (ATCC), also stably transfected with a modified aequorin
The test is described as follows: Cellular in vitro assay for determining vasopressin receptor activity, V1a receptor cell line (CHO, aequorin luminescence). The format is cell-based. The following applies: for IC50: CHO cell line transfected with human V1a receptor, [Arg]-vasopressin at EC50 concentration, read-out: IC50 hV1a; for ratio IC50 hV2/hV1a: selectivity ratio IC50 hV2 / IC50 hV1a. The procedure, abridged: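 CHO K1/aequorin cells, coelenterazine 5 μg/ml o/n; cpd 10 min; [Arg]-vasopressin at EC50; luminescence read immediately; IC50.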

A further test has as its target T2, human V2 receptor (Homo sapiens, UniProt P30518).
T2 construct: expressed in transfected cells; host or cells: CHO K1 (ATCC) expressing firefly luciferase under a CRE-responsive promoter
Nature of the test: Cellular in vitro assay for determining vasopressin receptor activity, V2 receptor cell line (CHO, CRE-luciferase). The format is cell-based. The following applies: CHO cell line transfected with human V2 receptor; [Arg8]-vasopressin at EC50 concentration, 3 hours; read-out: IC50 hV2.

The structures appear in SMILES notation.

T1 sequence (P37288 whole entry): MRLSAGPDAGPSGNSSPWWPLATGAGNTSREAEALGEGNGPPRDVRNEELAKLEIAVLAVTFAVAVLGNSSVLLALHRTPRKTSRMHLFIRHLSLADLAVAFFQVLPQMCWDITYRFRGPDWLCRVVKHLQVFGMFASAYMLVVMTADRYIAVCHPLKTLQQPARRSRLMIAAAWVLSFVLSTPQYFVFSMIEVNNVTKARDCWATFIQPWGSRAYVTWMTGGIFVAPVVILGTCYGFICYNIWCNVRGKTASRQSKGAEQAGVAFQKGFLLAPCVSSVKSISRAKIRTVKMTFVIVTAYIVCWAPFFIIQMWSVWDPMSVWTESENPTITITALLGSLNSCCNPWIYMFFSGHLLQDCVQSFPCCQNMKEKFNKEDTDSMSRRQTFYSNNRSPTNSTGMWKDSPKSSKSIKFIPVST
T2 sequence (P30518 whole entry): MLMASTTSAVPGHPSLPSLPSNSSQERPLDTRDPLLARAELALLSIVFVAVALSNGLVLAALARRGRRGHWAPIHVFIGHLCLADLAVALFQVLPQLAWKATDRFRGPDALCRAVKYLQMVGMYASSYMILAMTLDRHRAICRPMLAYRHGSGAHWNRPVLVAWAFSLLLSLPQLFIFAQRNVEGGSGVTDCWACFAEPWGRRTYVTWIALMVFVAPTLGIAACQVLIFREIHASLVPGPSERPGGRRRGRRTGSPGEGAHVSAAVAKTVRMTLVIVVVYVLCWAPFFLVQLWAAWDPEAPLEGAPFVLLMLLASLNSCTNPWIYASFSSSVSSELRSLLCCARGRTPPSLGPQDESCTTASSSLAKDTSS

For the compound `O=C(NCC1CC1)c1cccc(Cl)c1-n1cnc(Cn2nc(-c3ccc(Cl)cc3)n(C[C@H](O)C(F)(F)F)c2=O)n1` [Example 370, 3-Chloro-2-[3-({3-(4-chlorophenyl)-5-oxo-4-[(2S)-3,3,3-trifluoro-2-hydroxypropyl]-4,5-dihydro-1H-1,2,4-triazol-1-yl}methyl)-1H-1,2,4-triazol-1-yl]-N-(cyclopropylmethyl)benzamide], at human V1a receptor, the IC50 (usually the concentration needed to halve the response being measured) turned out to be 33 nM and the “ratio IC50 hV2/hV1a” value amounted to 12.7. In addition, the IC50 at human V2 receptor came out at 420 nM.

As to `NC(=O)[C@@H]1CC(F)(F)CN1C(=O)c1cccc(Cl)c1-n1cnc(Cn2nc(-c3ccc(Cl)cc3)n(C[C@H](O)C(F)(F)F)c2=O)n1` [Example 372, 1-{3-Chloro-2-[3-({3-(4-chlorophenyl)-5-oxo-4-[(2S)-3,3,3-trifluoro-2-hydroxypropyl]-4,5-dihydro-1H-1,2,4-triazol-1-yl}methyl)-1H-1,2,4-triazol-1-yl]benzoyl}-4,4-difluoro-L-prolinamide], on human V1a receptor, the 50% inhibitory concentration (IC50) amounted to 52.5 nM and the “ratio IC50 hV2/hV1a” value worked out at 64.8. Also, at human V2 receptor, the IC50 turned out to be 3400 nM.

Take `O=C(NC1CC1F)c1cccc(Cl)c1-n1cnc(Cn2nc(-c3ccc(Cl)cc3)n(C[C@H](O)C(F)(F)F)c2=O)n1` (stereo partly drawn) [Example 373, 3-Chloro-2-[3-({3-(4-chlorophenyl)-5-oxo-4-[(2S)-3,3,3-trifluoro-2-hydroxypropyl]-4,5-dihydro-1H-1,2,4-triazol-1-yl}methyl)-1H-1,2,4-triazol-1-yl]-N-[2-fluorocyclopropyl]benzamide]: the values for the IC50 on human V1a receptor and on human V2 receptor were 4.75 nM and 1030 nM, respectively. Further, the “ratio IC50 hV2/hV1a” value at human V1a receptor is given as 216.8.

Consider `O=C(c1cccc(Cl)c1-n1cnc(Cn2nc(-c3ccc(Cl)cc3)n(C[C@H](O)C(F)(F)F)c2=O)n1)N1CCC(F)(F)C1` [Example 374, 2-[(1-{2-Chloro-6-[(3,3-difluoropyrrolidin-1-yl)carbonyl]phenyl}-1H-1,2,4-triazol-3-yl)methyl]-5-(4-chlorophenyl)-4-[(2S)-3,3,3-trifluoro-2-hydroxypropyl]-2,4-dihydro-3H-1,2,4-triazol-3-one], for which, at human V1a receptor, the IC50 was found to be 47.5 nM and the “ratio IC50 hV2/hV1a” value amounted to 30.5. In addition, at human V2 receptor, the IC50 amounted to 1450 nM.

With `CC1(C)CN(C(=O)c2cccc(Cl)c2-n2cnc(Cn3nc(-c4ccc(Cl)cc4)n(C[C@H](O)C(F)(F)F)c3=O)n2)CCO1` [Example 375, 2-[(1-{2-Chloro-6-[(2,2-dimethylmorpholin-4-yl)carbonyl]phenyl}-1H-1,2,4-triazol-3-yl)methyl]-5-(4-chlorophenyl)-4-[(2S)-3,3,3-trifluoro-2-hydroxypropyl]-2,4-dihydro-3H-1,2,4-triazol-3-one], on human V1a receptor, the half-inhibitory concentration (IC50) was determined as 710 nM and the “ratio IC50 hV2/hV1a” value stood at 29.6. On human V2 receptor, the concentration for half-maximal inhibition (IC50) worked out at 21000 nM.

In the case of `O=C(NC1CC(F)(F)C1)c1cccc(Cl)c1-n1cnc(Cn2nc(-c3ccc(Cl)cc3)n(C[C@H](O)C(F)(F)F)c2=O)n1` [Example 376, 3-Chloro-2-[3-({3-(4-chlorophenyl)-5-oxo-4-[(2S)-3,3,3-trifluoro-2-hydroxypropyl]-4,5-dihydro-1H-1,2,4-triazol-1-yl}methyl)-1H-1,2,4-triazol-1-yl]-N-(3,3-difluorocyclobutyl)benzamide], at human V1a receptor, the IC50 worked out at 73.5 nM and the “ratio IC50 hV2/hV1a” value was 7.8. Besides, the IC50 on human V2 receptor worked out at 570 nM.

For the compound `O=C(c1cccc(Cl)c1-n1cnc(Cn2nc(-c3ccc(Cl)cc3)n(C[C@H](O)C(F)(F)F)c2=O)n1)N1CCCCC1` [Example 381, 5-(4-Chlorophenyl)-2-({1-[2-chloro-6-(piperidin-1-ylcarbonyl)phenyl]-1H-1,2,4-triazol-3-yl}methyl)-4-[(2S)-3,3,3-trifluoro-2-hydroxypropyl]-2,4-dihydro-3H-1,2,4-triazol-3-one], the half-inhibitory concentration (IC50) at human V1a receptor came out at 17 nM; at human V2 receptor it was 2250 nM. Besides, at human V1a receptor, the “ratio IC50 hV2/hV1a” value is reported as 132.4.

Regarding `O=C(c1cccc(Cl)c1-n1cnc(Cn2nc(-c3ccc(Cl)cc3)n(C[C@H](O)C(F)(F)F)c2=O)n1)N1CCOCC1` [Example 382, 2-({1-[2-Chloro-6-(morpholin-4-ylcarbonyl)phenyl]-1H-1,2,4-triazol-3-yl}methyl)-5-(4-chlorophenyl)-4-[(2S)-3,3,3-trifluoro-2-hydroxypropyl]-2,4-dihydro-3H-1,2,4-triazol-3-one], on human V1a receptor, the half-inhibitory concentration (IC50) came to 78 nM and the “ratio IC50 hV2/hV1a” value was 80.1. The half-maximal inhibitory concentration (IC50) on human V2 receptor turned out to be 6250 nM.

With `O=C(c1cccc(Cl)c1-n1cnc(Cn2nc(-c3ccc(Cl)cc3)n(C[C@H](O)C(F)(F)F)c2=O)n1)N1CCC[C@H]1C(F)(F)F` [Example 383, 5-(4-Chlorophenyl)-2-{[1-(2-chloro-6-{[(2S)-2-(trifluoromethyl)pyrrolidin-1-yl]carbonyl}phenyl)-1H-1,2,4-triazol-3-yl]methyl}-4-[(2S)-3,3,3-trifluoro-2-hydroxypropyl]-2,4-dihydro-3H-1,2,4-triazol-3-one], on human V1a receptor, the IC50 came out at 435 nM and the “ratio IC50 hV2/hV1a” value is 17.8. The IC50 on human V2 receptor stood at 7750 nM.

For the compound `O=C(c1cccc(Cl)c1-n1cnc(Cn2nc(-c3ccc(Cl)cc3)n(C[C@H](O)C(F)(F)F)c2=O)n1)N1CCC[C@@H]1C(F)(F)F` [Example 384, 5-(4-Chlorophenyl)-2-{[1-(2-chloro-6-{[(2R)-2-(trifluoromethyl)pyrrolidin-1-yl]carbonyl}phenyl)-1H-1,2,4-triazol-3-yl]methyl}-4-[(2S)-3,3,3-trifluoro-2-hydroxypropyl]-2,4-dihydro-3H-1,2,4-triazol-3-one], on human V1a receptor, the concentration for half-maximal inhibition (IC50) was 111 nM and the “ratio IC50 hV2/hV1a” value is 17.9. Also, the half-maximal inhibitory concentration (IC50) on human V2 receptor was determined as 2000 nM.

As to `O=C(c1cccc(Cl)c1-n1cnc(Cn2nc(-c3ccc(Cl)cc3)n(C[C@H](O)C(F)(F)F)c2=O)n1)N1CCS(=O)(=O)CC1` [Example 385, 2-[(1-{2-Chloro-6-[(1,1-dioxidothiomorpholin-4-yl)carbonyl]phenyl}-1H-1,2,4-triazol-3-yl)methyl]-5-(4-chlorophenyl)-4-[(2S)-3,3,3-trifluoro-2-hydroxypropyl]-2,4-dihydro-3H-1,2,4-triazol-3-one], the IC50 at human V1a receptor was 435 nM; on human V2 receptor, 9550 nM. Besides, on human V1a receptor, the “ratio IC50 hV2/hV1a” value was found to be 22.0.

`CN(CC1CC1)C(=O)c1cccc(Cl)c1-n1cnc(Cn2nc(-c3ccc(Cl)cc3)n(C[C@H](O)C(F)(F)F)c2=O)n1` [Example 387, 3-Chloro-2-[3-({3-(4-chlorophenyl)-5-oxo-4-[(2S)-3,3,3-trifluoro-2-hydroxypropyl]-4,5-dihydro-1H-1,2,4-triazol-1-yl}methyl)-1H-1,2,4-triazol-1-yl]-N-(cyclopropylmethyl)-N-methylbenzamide]: at human V1a receptor, the IC50 was 92.5 nM and the “ratio IC50 hV2/hV1a” value was determined as 36.8. Further, the IC50 at human V2 receptor was 3400 nM.

For `CC1(NC(=O)c2cccc(Cl)c2-n2cnc(Cn3nc(-c4ccc(Cl)cc4)n(C[C@H](O)C(F)(F)F)c3=O)n2)CC1` [Example 388, 3-Chloro-2-[3-({3-(4-chlorophenyl)-5-oxo-4-[(2S)-3,3,3-trifluoro-2-hydroxypropyl]-4,5-dihydro-1H-1,2,4-triazol-1-yl}methyl)-1H-1,2,4-triazol-1-yl]-N-(1-methylcyclopropyl)benzamide], on human V1a receptor, the IC50 came to 7.15 nM and the “ratio IC50 hV2/hV1a” value was found to be 216.8. In addition, the IC50 at human V2 receptor was 1550 nM.
